Measurements published in patent US9895342B2, “Cannabinoids for use in the treatment of neuropathic pain” (GW Pharma Limited, priority 2011, dated 2018).

How the values were obtained:
[1] = test system: SNI mice; test: Mechanical allodynia (Dynamic Plantar Aesthesiometer, paw withdrawal threshold) in spared nerve injury mice; assay type: in vivo; settings: for mechanical withdrawal, course over time: 5.0 mg/kg, day 7 to day 14; for MECHANICAL WITHDRAWAL THRESHOLD: SNI mice; for overall efficacy, mechanical withdrawal: both of the doses tested (2.5 and 5 mg/kg); for ability to treat neuropathic pain compared with CBD: mechanical withdrawal data
Description: (§1) Peripheral neuropathic pain is produced by multiple etiological factors that initiate a number of diverse mechanisms at different sites and in different disease states. Spared nerve injury (SNI) consists of partial ligation and transaction of the sciatic nerve which evolves in neuropathic pain whose typical manifestations are represented by thermal hyperalgesia and tactile allodynia.
(§2) Chronic pain symptoms are measured through changes in thermoceptive responses (which is indicative of thermal hyperalgesia) using Plantar Test Apparatus (Ugo Basile, Varese, Italy) and in mechanical paw withdrawal threshold (which is indicative of mechanical allodynia) by a Dynamic Plantar Aesthesiometer (Ugo Basile, Varese, Italy). Nociceptive responses were measured before and after surgery in groups of mice differently treated (vehicle or drugs different combinations).
(§3) The cannabinoids tested were CBG, CBC, CBDV, and THCV. […] The cannabinoids were prepared from whole plant extracts of cannabis plants which had been purified. The cannabinoids were dissolved in ringer/0.5% dimethyl sulfoxide (DMSO), for intraperitoneal (i.p.) administration.
(§4) Male CD-1 mice (35-40 g) were housed, 3 per cage, under controlled illumination (12:12 h light:dark cycle; light on 06.00 h) and environmental conditions (room temperature 20-22° C., humidity 55-60%) for at least 1 week before the commencement of experiments. Mouse chow and tap water were available ad libitum. The experimental procedures were approved by the Ethic Committee of the Second University of Naples. Animal care was in compliance with the IASP and European Community (E.C. L358/1 18/12/86) guidelines on the use and protection of animals in experimental research. All efforts were made to minimize animal suffering and to reduce the number of animals used.
(§5) Behavioural testing was performed before surgery to establish a baseline for comparison with post-surgical values. Mononeuropathy was induced according to the method of Bourquin and Decosterd (2006).
(§6) Mice were anaesthetized with sodium pentobarbital (60 mg/kg i.p.). The right hindlimb was immobilized in a lateral position and slightly elevated. Incision was made at mid-thigh level using the femur as a landmark. The sciatic nerve was exposed at mid-thigh level distal to the trifurcation and freed of connective tissue; the three peripheral branches (sural, common peroneal, and tibial nerves) of the sciatic nerve were exposed without stretching nerve structures.
(§7) Both tibial and common peroneal nerves were ligated and transacted together. A micro-surgical forceps with curved tips was delicately placed below the tibial and common peroneal nerves to slide the thread (5.0 silk, Ethicon, Johnson, and Johnson Intl, Brussels, Belgium) around the nerves. A tight ligation of both nerves was performed. The sural nerve was carefully preserved by avoiding any nerve stretch or nerve contact with surgical tools. Muscle and skin were closed in two distinct layers with silk 5.0 sutures.
(§8) Intense, reproducible and long-lasting thermal hyperalgesia and mechanical allodynia-like behaviors are measurable in the non-injured sural nerve skin territory. The SNI model offers the advantage of a distinct anatomical distribution with an absence of co-mingling of injured and non-injured nerve fibers distal to the lesion such as the injured and non-injured nerves and territories can be readily identified and manipulated for further analysis (i.e. behavioral assessment).
(§9) The sham procedure consisted of the same surgery without ligation and transection of the nerves.
(§10) The groups of mice were divided as follows, each cannabinoid tested has its own group of mice:
(§11) The cannabinoids were dosed daily for 14 days. Doses for all cannabinoids tested were: 2.5 and 5.0 mg/Kg. Vehicle solution was 0.5% DMSO in ringer solution.
Mechanical allodynia was measured by using Dynamic Plantar Anesthesiometer (Ugo Basile, Varese, Italy). […]

[2] = test system: SNI mice; test: Thermal hyperalgesia (Plantar Test Apparatus, paw withdrawal latency) in spared nerve injury mice; assay type: in vivo; settings: for dose-dependence of effect on thermal withdrawal latency: 2.5 vs 5 mg/kg; for ability to treat neuropathic pain compared with CBD: thermal withdrawal data
Description: as §1, §2, §3, §4, §5, §6, §7, §8, §9, §10, §11
Thermal hyperalgesia was evaluated by using a Plantar Test Apparatus (Ugo Basile, Varese, Italy). […]

[3] = test system: chronic constriction injury of the rat sciatic nerve; settings: administered as a purified compound; Costa et al., 2004; cited from earlier work
[4] = test system: patients; settings: cited from earlier work
[5] = SNI mice, 2.5 mg/kg i.p. daily, DAY 3
[6] = SNI mice, 2.5 mg/kg i.p. daily, DAY 7
[7] = SNI mice, 2.5 mg/kg i.p. daily, DAY 14
[8] = SNI mice, 5 mg/kg i.p. daily, DAY 3
[9] = SNI mice, 5 mg/kg i.p. daily, DAY 7
[10] = SNI mice, 5 mg/kg i.p. daily, DAY 14

Row | Structure (SMILES) | mechanical withdrawal, course over time [1] | MECHANICAL WITHDRAWAL THRESHOLD ([1]; 2.5 mg/kg i.p. daily, DAY 3) [g] | MECHANICAL WITHDRAWAL THRESHOLD ([1]; 2.5 mg/kg i.p. daily, DAY 7) [g] | MECHANICAL WITHDRAWAL THRESHOLD ([1]; 2.5 mg/kg i.p. daily, DAY 14) [g] | MECHANICAL WITHDRAWAL THRESHOLD ([1]; 5 mg/kg i.p. daily, DAY 3) [g] | MECHANICAL WITHDRAWAL THRESHOLD ([1]; 5 mg/kg i.p. daily, DAY 7) [g] | MECHANICAL WITHDRAWAL THRESHOLD ([1]; 5 mg/kg i.p. daily, DAY 14) [g] | overall efficacy, mechanical withdrawal [1] | overall efficacy, thermal withdrawal ([2]; 2.5 mg/kg) | THERMAL WITHDRAWAL LATENCY ([2]; 5.0 mg/kg, day 3) | dose-dependence of effect on thermal withdrawal latency [2] | THERMAL WITHDRAWAL LATENCY [2, 5] [s] | THERMAL WITHDRAWAL LATENCY [2, 6] [s] | THERMAL WITHDRAWAL LATENCY [2, 7] [s] | THERMAL WITHDRAWAL LATENCY [2, 8] [s] | THERMAL WITHDRAWAL LATENCY [2, 9] [s] | THERMAL WITHDRAWAL LATENCY [2, 10] [s] | ability to treat neuropathic pain compared with CBD [1] | overall efficacy, thermal withdrawal ([2]; 5.0 mg/kg) | ability to treat neuropathic pain compared with CBD [2] | further results
1 | CCCCCc1cc(O)c2c(c1)OC(C)(CCC=C(C)C)C=C2 (stereo not drawn) [CBC, cannabichromene] | large increase at day 7; however this latency decreased again at the 14 day time point | 2.4 | 4.5 | 5.0 | 5.1 | 9.7 | 5.2 | relatively ineffective | relatively ineffective | able to increase the amount of time before the animal withdrew its paw | do not appear to be dose-dependent | 3.7 | 4.8 | 5.2 | 6.0 | 7.0 | 7.2 |  |  |  | 
2 | C=C(C)[C@@H]1CCC(C)=C[C@H]1c1c(O)cc(CCCCC)cc1O [CBD, cannabidiol, reference compound] | large increase at day 7; however this latency decreased again at the 14 day time point | 2.2 | 4.8 | 5.2 | 5.0 | 8.6 | 5.3 | relatively ineffective | relatively ineffective | able to increase the amount of time before the animal withdrew its paw | do not appear to be dose-dependent | 3.5 | 4.2 | 5.6 | 5.8 | 7.0 | 7.5 |  |  |  | relief of neuropathic pain [3]: can partially relieve neuropathic pain
3 | C=C(C)[C@@H]1CCC(C)=C[C@H]1c1c(O)cc(CCC)cc1O [CBDV, cannabidivarin] |  | 6.8 | 7.0 | 7.8 | 6.7 | 6.6 | 7.7 | highest mechanical withdrawal latency of all the cannabinoids | good efficacy |  | dose-dependent effects were observed | 3.8 | 6.4 | 6.5 | 4.0 | 7.2 | 11.0 | superior to CBD | most effective | superior to CBD | mechanical withdrawal latency ([1]; 2.5 mg/kg, day 3): dramatic increase; THERMAL WITHDRAWAL LATENCY ([2]; 5.0 mg/kg, 14 days): large increase
4 | CCCCCc1cc(O)c(C/C=C(\C)CCC=C(C)C)c(O)c1 [CBG, cannabigerol] |  | 3.4 | 6.1 | 7.8 | 6.0 | 6.1 | 7.8 | good efficacy | highest thermal withdrawal latency of all the cannabinoids | able to increase the amount of time before the animal withdrew its paw | do not appear to be dose-dependent | 5.5 | 5.4 | 7.0 | 7.8 | 7.6 | 7.5 | superior to CBD |  | superior to CBD | THERMAL WITHDRAWAL LATENCY ([2]; 2.5 mg/kg, day 3): increase in the amount of thermal withdrawal latency
5 | CCCc1cc(O)c2c(c1)OC(C)(C)[C@@H]1CCC(C)=C[C@@H]21 [THCV, tetrahydrocannabivarin] |  | 3.0 | 6.2 | 7.5 | 3.2 | 8.5 | 9.8 | good efficacy | good efficacy |  | do not appear to be dose-dependent | 3.8 | 9.8 | 7.6 | 3.9 | 10.5 | 11.9 | superior to CBD | most effective | superior to CBD | thermal withdrawal latency, course over time ([2]; 2.5 mg/kg, day 7 to day 14): large increase at the day 7 time point which then decreases after a further 7 days; THERMAL WITHDRAWAL LATENCY ([2]; 5.0 mg/kg, 14 days): large increase
6 | NC(=O)N1c2ccccc2C=Cc2ccccc21 [carbamezepine] |  |  |  |  |  |  |  |  |  |  |  |  |  |  |  |  |  |  |  |  | decrease in white blood cell count ([4]; in 7% of patients): 25%; increase in the risk of blood dyscrasias ([4]; post-marketing studies, patients taking carbamezepine): five- to eight-fold
